Key:
Assay type in all cases: in vivo
Abutilon theophrasti = assay: Weeding effect in post-emergence stage; settings: 720 g a.i./ha, 3 weeks after application
From the text: (§1) The activity level criteria for plant damage (i.e., growth control rate) are as follows:
(§2) The above growth control rates are fresh weight control rates.
(§3) Monocotyledonous and dicotyledonous weed seeds (Descurainia sophia, Capsella bursa-pastoris, Abutilon theophrasti, Galium aparine, Stellaria media, Lithospermum arvense, Rorippa indica, Alopecurus aequalis, Alopecurus japonicus, Eleusine indica, Beckmannia syzigachne, Sclerochloa dura, Phleum paniculatum, Veronica didyma, Bromus japonicus, Aegilops tauschii, Phalaris arundinacea, Amaranthus retroflexus, Chenopodiaceae, Commelina communis, Sonchus arvensis, Convolvulus arvensis, Cirsium setosum, Solanumnigrum, Acalypha australis, Digitaria sanguinalis, Echinochloa crusgalli, Setaria viridis, Setaria glauca, Leptochloa chinensis, Monochoria vaginalis, Sagittaria trifolia, Scirpus juncoides, Cyperus rotundus, Cyperus iria, Cyperus difformis, Fimbristylis, Portulaca oleracea, Xanthium sibiricum, Pharbitis nil, Conyza Canadensis, etc.) and major crop seeds (wheat, corn, rice, soybean, cotton, oilseed rape, millet, sorghum, potato, sesame, ricinus, etc.) were placed in plastic pots filled with soil, then covered with 0.5-2 cm of soil, allowed to grow in a good greenhouse environment. Two weeks after sowing, the test plants were treated in the 2-3 leaf stage. The tested compounds of the present invention were respectively dissolved in acetone, then added with Tween 80 and 1.5 liter/ha of emulsifiable concentrate of methyl oleate as synergist, diluted with a certain amount of water to obtain a solution of a certain concentration, and sprayed by a spray tower onto the plants. After the application, the plants were cultured for 3 weeks in the greenhouse, and then the experimental results of the weeding were recorded. The doses of the used compounds were 45, 90, 180, 360, 720 g a.i./ha, and the averages were obtained from three replicates.

Leptochloa chinensis = assay: Weeding effect in post-emergence stage; settings: 720 g a.i./ha, 3 weeks after application
From the text: as §1, §2, §3

Digitaria sanguinalis = assay: Weeding effect in post-emergence stage; settings: 720 g a.i./ha, 3 weeks after application
From the text: as §1, §2, §3

Alopecurus japonicus = assay: Weeding effect in post-emergence stage; settings: 720 g a.i./ha, 3 weeks after application
From the text: as §1, §2, §3

[1] = tested on: spinach, radish, Chinese cabbage, sesame, rape, cucumber, watermelon, melon, pumpkin, cassava, soybean, kidney bean, cowpea, common bean, hyacinth bean, sponge …; assay: Field test, crop safety; settings: applied after planting and pre-emergence at 300 g a.i./ha
[2] = tested on: Echinochloa crusgalli, Scirpus juncoides, Bidens tripartita L., Sagittaria trifolia; rice (japonica rice); assay: Transplanted rice safety evaluation and weed control effect evaluation in rice field; settings: weeds 14 days, rice 21 days after treatment; observed with the naked eye
Protocol: Rice field soil was loaded into a 1/1,000,000 ha pot. The seeds of Echinochloa crusgalli, Scirpus juncoides, and Bidens tripartita L. were sowed and gently covered with soil, then placed in a greenhouse with water storage of 0.5-1 cm deep. The tuber of Sagittaria trifolia was planted in the next day or 2 days later. The water storage was kept at a depth of 3-4 cm thereafter. The weeds were treated by homogeneously dripping the WP or SC water diluents of the compounds of the present invention prepared according to the common preparation methods with a pipette to the specified effective amount when the Echinochloa crusgalli, Scirpus juncoides, and Bidens tripartita L. reached their 0.5 leaf stages and the Sagittaria trifolia reached the time point of the primary leaf stage.
In addition, the rice field soil that loaded into the 1/1,000,000 ha pot was leveled to keep water storage at a depth of 3-4 cm. […]
The development condition of Echinochloa crusgalli, Scirpus juncoides, Bidens tripartita L., and Sagittaria trifolia 14 days after the treatment of the compound of the invention and the development condition of rice 21 days after the treatment of the compound of the invention were respectively observed with the naked eye. The weed control effect was evaluated according to the above activity level criteria. […]

rice [3] = assay: Post-emergence stage, crop damage; settings: 720 g a.i./ha, 3 weeks after application
From the text: as §1, §2, §3

wheat [4] = assay: Post-emergence stage, crop damage; settings: 720 g a.i./ha, 3 weeks after application
From the text: as §1, §2, §3

corn = assay: Pre-emergence stage, crop damage; settings: 24 g a.i./mu, 2 weeks
From the text: as §1, §2
(§4) Monocotyledonous and dicotyledonous weed seeds (Descurainia sophia, Capsella bursa-pastoris, Abutilon theophrasti, Galium aparine, Stellaria media, Lithospermum arvense, Rorippa indica, Alopecurus aequalis, Alopecurus japonicus, Eleusine indica, Beckmannia syzigachne, Sclerochloa dura, Phleum paniculatum, Veronica didyma, Bromus japonicus, Aegilops tauschii, Phalaris arundinacea, Amaranthus retroflexus, Chenopodiaceae, Commelina communis, Sonchus arvensis, Convolvulus arvensis, Cirsium setosum, Solanumnigrum, Acalypha australis, Digitaria sanguinalis, Echinochloa crusgalli, Setaria viridis, Setaria glauca, Leptochloa chinensis, Monochoria vaginalis, Sagittaria trifolia, Scirpus juncoides, Cyperus rotundus, Cyperus iria, Cyperus difformis, Fimbristylis, Portulaca oleracea, Xanthium sibiricum, Pharbitis nil, Conyza Canadensis, etc.) and major crop seeds (wheat, corn, rice, soybean, cotton, oilseed rape, millet, sorghum, potato, sesame, ricinus, etc.) were placed in plastic pots filled with soil, then covered with 0.5-2 cm of soil, allowed to grow in a good greenhouse environment. The test plants were treated on the day of sowing. The tested compounds of the present invention were respectively dissolved in acetone, then added with Tween 80, diluted with a certain amount of water to obtain a solution of a certain concentration, and sprayed by a spray tower onto the plants. After the application, the plants were cultured for 2 weeks in the greenhouse, and then the experimental results of the weeding were recorded. The doses of the used compounds were 3, 6, 12, 24, 48 g ai./mu (1 mu=1/15 ha), and the averages were obtained from three replicates.

soy bean = assay: Pre-emergence stage, crop damage; settings: 2 weeks
From the text: as §1, §2, §4

rice [5] = assay: Pre-emergence stage, crop damage; settings: 2 weeks
From the text: as §1, §2, §4

cotton = assay: Pre-emergence stage, crop damage; settings: 2 weeks
From the text: as §1, §2, §4

wheat [6] = assay: Pre-emergence stage, crop damage; settings: 2 weeks
From the text: as §1, §2, §4

peanut = assay: Pre-emergence stage, crop damage; settings: 48 g a.i./mu, 2 weeks
From the text: as §1, §2, §4

With `CC1(C)CON(Cc2ccc(Cl)cc2Br)C1=O` [Compound 1] the “weeding effect in post-emergence stage, activity level (growth control rate)” value (shortened to “weeding effect in post-emergence stage”) (Abutilon theophrasti) was 5 (Level 5: growth control rate is greater than or equal to 85%), the “weeding effect in post-emergence stage” value (Leptochloa chinensis) was 5 (Level 5: growth control rate is greater than or equal to 85%) and the “weeding effect in post-emergence stage” value (Digitaria sanguinalis) was 5 (Level 5: growth control rate is greater than or equal to 85%). For the same compound, the “weeding effect in post-emergence stage” value (Alopecurus japonicus) was 4 (Level 4: growth control rate is greater than or equal to 60% and less than 85%), the “crop safety in field test” value [1] was “safe” and the “weed control effect and transplanted rice safety in rice field” value [2] was “excellent activity and selectivity”. The “plant damage level (growth control rate) on crop, post-emergence stage” value (rice [3]) was 1 (Level 1: growth control rate is greater than or equal to 5% and less than 20%), the “plant damage level (growth control rate) on crop, post-emergence stage” value (wheat [4]) was 1 (Level 1: growth control rate is greater than or equal to 5% and less than 20%) and the “plant damage level (growth control rate) on crop, pre-emergence stage” value (“plant damage level … pre-emergence stage” for short) (corn) was 0. The “plant damage level … pre-emergence stage” value (soy bean; 24 g a.i./mu) was 0, the “plant damage level … pre-emergence stage” value (soy bean; 48 g a.i./mu) was 0 and the “plant damage level … pre-emergence stage” value (rice [5]; 6 g a.i./mu) was 0. For the same compound, the “plant damage level … pre-emergence stage” value (rice [5]; 12 g a.i./mu) was 0, the “plant damage level … pre-emergence stage” value (rice [5]; 24 g a.i./mu) was 1 (Level 1: growth control rate is greater than 0% and less than 15%) and the “plant damage level … pre-emergence stage” value (cotton; 12 g a.i./mu) was 0. The “plant damage level … pre-emergence stage” value (cotton; 24 g a.i./mu) was 0, the “plant damage level … pre-emergence stage” value (wheat [6]; 6 g a.i./mu) was 0 and the “plant damage level … pre-emergence stage” value (wheat [6]; 12 g a.i./mu) was 0. The “plant damage level … pre-emergence stage” value (wheat [6]; 24 g a.i./mu) was 0 and the “plant damage level … pre-emergence stage” value (peanut) was 0.
